Positions count from the first letter of the chain named.
Assays:
Assay in all cases: two-electrode voltage clamp, Xenopus oocytes
Format in all cases: cell-based
[1] = molecular target: T1, GIRK4 homomeric channel (GIRK4, G4) (Homo sapiens, UniProt P48544, G247R); conditions: activator, high potassium ND96K
T1 construct: gene KCNJ5; full-length GIRK4 in pGEMSH vector, homotetramer, expressed in Xenopus laevis oocytes
T1 sequence (P48544 1-419 G247R): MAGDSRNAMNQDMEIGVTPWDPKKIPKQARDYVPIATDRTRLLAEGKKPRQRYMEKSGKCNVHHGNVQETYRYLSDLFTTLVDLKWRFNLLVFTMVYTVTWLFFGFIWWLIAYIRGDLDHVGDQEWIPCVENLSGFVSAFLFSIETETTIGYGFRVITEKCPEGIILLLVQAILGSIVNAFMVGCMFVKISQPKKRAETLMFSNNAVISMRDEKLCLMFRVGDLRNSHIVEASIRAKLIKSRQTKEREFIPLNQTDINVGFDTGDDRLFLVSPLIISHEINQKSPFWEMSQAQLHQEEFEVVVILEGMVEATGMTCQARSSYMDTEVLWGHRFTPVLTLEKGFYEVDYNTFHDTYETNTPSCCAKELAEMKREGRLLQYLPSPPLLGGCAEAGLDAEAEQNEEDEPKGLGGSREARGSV

[2] = molecular target: T2, GIRK4 homomeric channel (GIRK4, G4) (Homo sapiens, UniProt P48544)
T2 construct: gene KCNJ5; full-length GIRK4 in pGEMSH vector, homotetramer, expressed in Xenopus laevis oocytes
T2 sequence (P48544 1-419): T1 sequence (P48544 1-419 G247R) with R247G

[3] = molecular target: T3, GIRK4 homomeric channel (GIRK4, G4) (Homo sapiens, UniProt P48544, S75A); conditions: activator, high potassium ND96K
T3 construct: gene KCNJ5; full-length GIRK4 in pGEMSH vector, homotetramer, expressed in Xenopus laevis oocytes
T3 sequence (P48544 1-419 S75A): T1 sequence (P48544 1-419 G247R) with S75A, R247G

[4] = molecular target: T4, GIRK4 homomeric channel (GIRK4, G4) (Homo sapiens, UniProt P48544, F181A); conditions: activator, high potassium ND96K
T4 construct: gene KCNJ5; full-length GIRK4 in pGEMSH vector, homotetramer, expressed in Xenopus laevis oocytes
T4 sequence (P48544 1-419 F181A): T1 sequence (P48544 1-419 G247R) with F181A, R247G

[5] = molecular target: T5, GIRK4 homomeric channel (GIRK4, G4) (Homo sapiens, UniProt P48544, L77I); conditions: activator, high potassium ND96K
T5 construct: gene KCNJ5; full-length GIRK4 in pGEMSH vector, homotetramer, expressed in Xenopus laevis oocytes
T5 sequence (P48544 1-419 L77I): T1 sequence (P48544 1-419 G247R) with L77I, R247G

[6] = molecular target: T6, GIRK4 homomeric channel (GIRK4, G4) (Homo sapiens, UniProt P48544, I177V); conditions: activator, high potassium ND96K
T6 construct: gene KCNJ5; full-length GIRK4 in pGEMSH vector, homotetramer, expressed in Xenopus laevis oocytes
T6 sequence (P48544 1-419 I177V): T1 sequence (P48544 1-419 G247R) with I177V, R247G

[7] = molecular target: T7, GIRK2∗ (GIRK2:E152D) (Mus musculus, UniProt P48542, T80S/I82L/E152D); conditions: activator, high potassium ND96K
T7 construct: gene Kcnj6; GIRK2 E152D in pXOOM vector, homotetramer, expressed in Xenopus laevis oocytes
T7 sequence (P48542 1-425 T80S/I82L/E152D): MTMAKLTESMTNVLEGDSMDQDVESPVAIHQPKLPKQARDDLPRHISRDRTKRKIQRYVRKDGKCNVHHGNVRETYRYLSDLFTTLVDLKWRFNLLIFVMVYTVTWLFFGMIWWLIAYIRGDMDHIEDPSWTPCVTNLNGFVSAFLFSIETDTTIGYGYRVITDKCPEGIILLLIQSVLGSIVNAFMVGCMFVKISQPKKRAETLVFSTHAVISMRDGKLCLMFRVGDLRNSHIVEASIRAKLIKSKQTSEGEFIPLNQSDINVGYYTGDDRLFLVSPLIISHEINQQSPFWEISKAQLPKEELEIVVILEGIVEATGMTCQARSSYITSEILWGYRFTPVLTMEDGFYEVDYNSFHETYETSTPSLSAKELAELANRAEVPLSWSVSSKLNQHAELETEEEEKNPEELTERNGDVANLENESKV

[8] = molecular target: T8, GIRK4 homomeric channel (GIRK4, G4) (Homo sapiens, UniProt P48544, S75T); conditions: activator, high potassium ND96K
T8 construct: gene KCNJ5; full-length GIRK4 in pGEMSH vector, homotetramer, expressed in Xenopus laevis oocytes
T8 sequence (P48544 1-419 S75T): T1 sequence (P48544 1-419 G247R) with S75T, R247G

[9] = molecular target: T9, GIRK2∗ (GIRK2:E152D) (Mus musculus, UniProt P48542, I82L/E152D); conditions: activator, high potassium ND96K
T9 construct: gene Kcnj6; GIRK2 E152D in pXOOM vector, homotetramer, expressed in Xenopus laevis oocytes
T9 sequence (P48542 1-425 I82L/E152D): T7 sequence (P48542 1-425 T80S/I82L/E152D) with S80T

[10] = molecular target: T10, GIRK4 homomeric channel (GIRK4, G4) (Homo sapiens, UniProt P48544, L90A); conditions: activator, high potassium ND96K
T10 construct: gene KCNJ5; full-length GIRK4 in pGEMSH vector, homotetramer, expressed in Xenopus laevis oocytes
T10 sequence (P48544 1-419 L90A): T1 sequence (P48544 1-419 G247R) with L90A, R247G

COc1ccc(C(=O)CC2(O)C(=O)N(Cc3cccc4ccccc34)c3ccccc32)cc1OC (stereo not shown) [3hi2one-G4, 3-[2-(3,4-dimethoxyphenyl)-2-oxoethyl]-3-hydroxy-1-(1-naphthylmethyl)-1,3-dihydro-2H-indol-2-one]
current at 30 μM [1]: GIRK4:G247R, which is functional, was robustly activated by 3hi2one-G4 | EC50 [2]: 12.7 µM | I/Ibasal at 30 μM [3]: Mutation of residue S75 to Ala did not yield a significant change in the ability | I/Ibasal at 30 μM [4]: GIRK4:I177V, GIRK4:F181A, and GIRK4:I190A showed reduced 3hi2one-G4–induced currents | I/Ibasal at 30 μM [5]: GIRK4:I177V, GIRK4:F181A, and GIRK4:I190A showed reduced 3hi2one-G4–induced currents | I/Ibasal at 30 μM [6]: GIRK4:I177V, GIRK4:F181A, and GIRK4:I190A showed reduced 3hi2one-G4–induced currents | current at 30 μM [7]: GIRK2∗:I82L and GIRK2∗:T80S/I82L but not GIRK2:T80S could be activated by 3hi2one-G4 | I/Ibasal at 30 μM [8]: whereas a Thr mutation significantly but partially affected the compound’s effectiveness | current at 30 μM [9]: GIRK2∗:I82L and GIRK2∗:T80S/I82L but not GIRK2:T80S could be activated by 3hi2one-G4 | I/Ibasal at 30 μM [10]: GIRK4:I177V, GIRK4:F181A, and GIRK4:I190A showed reduced 3hi2one-G4–induced currents

From article PMC9194863, “A novel small-molecule selective activator of homomeric GIRK4 channels” (The Journal of Biological Chemistry, 2022)
